{
  "source": "patent US20220233492A1",
  "about": "“METHOD OF PREVENTING OR TREATING POSTOPERATIVE PAIN” (priority 2019, published 2022)",
  "key": {"[1]": {"tested_on": "postoperative pain, subjects underwent laparoscopic colorectal surgery", "experiment": "Example 1: postoperative IV infusion vs placebo after laparoscopic colorectal surgery", "format": "in vivo, human", "method": "Subjects who reported a pain intensity score of at least 4 on the NRS (0-10) after regaining consciousness in the post-anesthesia care unit (PACU) were enrolled in the study. The VVZ-149 group received an 8-hours IV infusion at a loading dose of 1.8 mg/kg for 0.5 h followed by a maintenance dose of 1.3 mg/kg/h for 7.5 h, and the placebo group received a placebo with the same dosing regimen. […] The primary-outcome measure, pain intensity, was evaluated using NRS (0-10) at the scheduled time points through 24 hours post-emergence. […] In rescued patients, anxiety was also highly correlated with both depression (r=0.285, p=0.041) and PCS score (r=0.334, p=0.016)."}, "[2]": {"tested_on": "postoperative pain, subjects for an elective bunionectomy", "experiment": "Example 3: IV infusion after nerve block removal vs placebo, elective bunionectomy", "format": "in vivo, human", "method": "The primary-outcome measure, pain intensity, was evaluated using NRS (0-10) at the scheduled time points through 48 hours post-emergence. […] Subjects were given 2 stopwatches to start at the time of the start of the study drug infusion (T=0) and were instructed to stop the first stopwatch when “perceptible pain relief”, and the second stopwatch when “meaningful pain relief” is felt by the Time 12 hr."}, "[3]": {"experiment": "double-blinded, randomized preclinical studies with PK/PD correlation analyses", "format": "in vivo"}, "[4]": {"tested_on": "postoperative pain, subjects for an open elective abdominoplasty", "experiment": "Example 2: IV infusion started before anesthesia induction vs placebo, open elective abdominoplasty", "format": "in vivo, human"}, "[5]": {"tested_on": "postoperative pain, subjects underwent laparoscopic or robotic-assisted gastrectomy", "experiment": "Example 4: intraoperative start IV infusion vs placebo, laparoscopic or robotic-assisted gastrectomy", "format": "in vivo, human", "conditions": "for reduction of total amount of opioid consumed vs placebo: p<0.05"}, "[6]": {"tested_on": "healthy human subjects or subjects undergoing major surgeries", "experiment": "safety in healthy human subjects or subjects undergoing major surgeries", "format": "in vivo"}},
  "note": "Entries after “also recorded” stand apart in the source; their conditions may differ.",
  "data": [
    {"smiles": "CCCCOc1c(OC)cc(C(=O)NCC2(N(C)C)CCOCC2)cc1OC", "note": "[VVZ-149, 4-butoxy-N-((4-(dimethylamino)tetrahydro-2H-pyran-4-yl)methyl)-3,5-dimethoxybenzamide]", "values": [
      {"measurement": "pain intensity (NRS 0-10) vs placebo", "setting": "[1]; 8-hours IV infusion 1.8 mg/kg 0.5 h + 1.3 mg/kg/h […], through 24 hours post-emergence, FIG. 1", "value": "lower pain intensity"},
      {"measurement": "opioid consumption (hydromorphone via PCA and rescue) vs placebo", "setting": "[1]; all patients, FIG. 2", "value": "significant less opioid consumption"},
      {"measurement": "number of PCA demands vs placebo", "setting": "[1]; hydromorphone PCA, FIG. 3 and FIG. 4", "value": "significantly reduced the patients' need for postoperative analgesia; also recorded: significantly lower"},
      {"measurement": "pain intensity vs placebo subgroup", "setting": "[1]; subgroup of rescued patients (rescue hydromorphone in first 2 hours post-emergence), FIG. 7", "value": "reduced pain intensity"},
      {"measurement": "decrease in hydromorphone use compared to placebo", "setting": "[1]; subgroup of rescued patients, FIG. 7", "value": 40, "unit": "%"},
      {"measurement": "pain intensity vs placebo subgroup", "setting": "[1]; subgroup with severe postoperative pain (predose PI 7), FIG. 5a", "value": "significant lower pain intensity"},
      {"measurement": "hydromorphone (via PCA and/or rescue) requested and consumed vs placebo subgroup", "setting": "[1]; subgroup with severe postoperative pain (predose PI 7), FIG. 5b", "value": "less hydromorphone (via PCA and/or rescue) was requested and consumed"},
      {"measurement": "pain intensity (NRS 0-10) vs placebo", "setting": "[2]; 10-hours IV infusion 160 mg 0.5 h + 840 mg 9.5 h after nerve block removal, FIG. 16a", "value": "lower pain intensity"},
      {"measurement": "opioid consumption vs placebo", "setting": "[2]; IV morphine rescue, all patients", "value": "less opioid consumption"},
      {"measurement": "morphine requested and consumed vs placebo subgroup", "setting": "[2]; subgroup predose PI≥7, FIG. 17a, 17b", "value": "significant less morphine was requested and consumed"},
      {"measurement": "pain intensity vs placebo subgroup", "setting": "[2]; subgroup with severe postoperative pain, predose PI≥7, FIG. 16b", "value": "significant lower pain intensity"},
      {"measurement": "patients reporting perceptible pain relief", "setting": "[2]; within 30 minutes after the start of infusion, FIG. 18", "value": "More than 50%"},
      {"measurement": "pain relief", "setting": "[3]", "value": "dose-dependent pain relief"},
      {"measurement": "sedative or adverse effects", "setting": "[3]", "value": "without significant sedative or adverse effects"},
      {"measurement": "anti-allodynic effect", "setting": "[3]; versus morphine or gabapentin", "value": "comparable to morphine or gabapentin"},
      {"measurement": "total amount of rescue opioid consumed vs placebo", "setting": "[4]; 0-6, 0-12, 0-24 hours, FIG. 9", "value": "significant lower"},
      {"measurement": "reduction of postoperative pain", "setting": "[4]; 10-hours IV infusion 160 mg 0.5 h + 840 mg 9.5 h, starting approx. 30 minutes before induction of anesthesia", "value": "opioid comparable reduction of postoperative pain"},
      {"measurement": "number of requests for rescue opioid vs placebo", "setting": "[4]; IV morphine rescue, 0-24 hours, FIG. 8", "value": "significant lower"},
      {"measurement": "proportion of opioid-free subjects vs placebo", "setting": "[4]; during the first 12 hours post-emergence, FIG. 10", "value": "higher proportion of subjects that are opioid-free"},
      {"measurement": "mean NRS rest vs placebo", "setting": "[5]; 10 h IV infusion 1.8 mg/kg 0.5 h + 1.3 mg/kg/hr 9.5 h, significance at T=4 (p<0.05), FIG. 12", "value": "lower at any given timepoint through 24 hrs post-emergence except at T=24"},
      {"measurement": "opioid sparing (opioid consumed vs placebo)", "setting": "[5]; for 10 hours post-emergence, p<0.01, FIG. 14", "value": 31.8, "unit": "%"},
      {"measurement": "number of PCA demand vs placebo", "setting": "[5]; in vivo", "value": "significantly lessened at T=2 and T=10"},
      {"measurement": "reduction of total amount of opioid consumed vs placebo", "setting": "[5]; rescued patient group, 0-10 hr post-emergence", "value": 31.4, "unit": "%"},
      {"measurement": "reduction of total amount of opioid consumed vs placebo", "setting": "[5]; rescued patient group, 10-24 hr post-emergence", "value": 35, "unit": "%"},
      {"measurement": "pain intensity (PIs) vs placebo", "setting": "[5]; rescued patient group, significance at 4 hr (p<0.01) and 10 hr post-emergence (p<0.05), FIG. 15b", "value": "much lower"},
      {"measurement": "clinically significant adverse events (AEs)", "setting": "[6]", "value": "No clinically significant adverse events"}
    ]}
  ]
}
